Columns and labels:
[1] = tested on: E. faecalis VE14089; assay: Agar well diffusion assay; assay type: cell-based, Enterococcus faecalis; settings: estimated from halo diameter by nisin standard curve, relative to wt
Protocol: (§1) L. lactis strains were cultured in M17 broth supplemented with 0.5% (w/v) glucose (GM17) or GM17 agar for genetic manipulation or in minimal expression medium (MEM) for protein expression at 30°C (Rink et al., [2005]). E. faecalis, S. aureus, S. pneumonia, and L. monocytogenes were grown in GM17 at 37°C or GM17 agar at different temperatures for agar diffusion assay. M. luteus was grown in Luria-Bertani broth shaken (200 rpm) at 30°C or LB agar at 20°C for agar diffusion assay. Bacillus strains were cultured in Brain Heart Infusion (BHI) shaken (200 rpm) or BHI agar at different temperatures for agar diffusion assay.
(§2) For the agar well diffusion assay, the same cultures as in the MIC value test were used and diluted 200 times with solid media. Identical sizes of wells (7.5 mm diameter) were made and 2 μg of hinge region analogs dissolved in 20 μl 0.05% acetic acid were added. The plates were incubated at different temperatures for at least 1 day until apparent halos appeared. For activity test at low temperature, the indicators were diluted in the same way but poured into smaller plates (52 mm diameter). The plates were incubated at 4°C overnight before the peptides were added. B. sporothermodurans IC4 and B. cereus 4153 were first incubated with the peptides at 4°C for 2 weeks then moved to 30°C and incubated overnight. The diameters of the halos were measured.
(§3) The antimicrobial activity of the hinge region analogs in solid media were tested by an agar well diffusion assay. The diameters of the halos were measured and the residual activity of the analogs were estimated according to the formula of the relationship between the concentration of nisin and the sizes of halos. We made use of the fact that the size of the halo is directly related to the log of nisin concentration. Of course this is an estimate of activity of the variants because any changes in diffusion of the variant bacteriocin or growth rates of indicator bacteria during the assay could also affect the size of the halo. (Table 5 and Supplementary Figure 1). The plates were shown in supplementary data (Supplementary Figures 2–8). […] And against L. lactis at 20°C, the inhibition zone was larger than nisin. […] The M. luteus grows quite fast at room temperature and only the +2 variant retained 55% of the activity of nisin. […]
(§4) To evaluate the activity of nisin on the agar plate, an agar well diffusion assay with gradient of nisin against Lactococcus lactis ( with two plasmids) was performed ( Supplementary Figur e 1 A). The diameter of the halos were measured (Supplementary Figure 1B). […]
(§5) the concentration of nisin is in liner relationship with diameter of the halos ( Supplementary Fi g u re 1C). According to the formula (1) , the relative activity of the peptides compared to nisin can be calculated b y the formula ( 2) .
(§6) Supplementary Figure 1. Relationship between concentration of nisin and diameter of the halos. (A) Agar well diffusion assay. Gradient concentration of nisin were made and dissolved in 30µl 0.05% acetic acid. Lactococcus lactis ( with two plasmids) was cultured overnight and diluted 250 times with GM17 agar before added to the plate. The final concentration of the cells was about 2×10^6 cells/milliliter. The plate was incubated for 1 da y. Concentrations of nisin were labeled. (B) log10 of the concentrati ons and diameters of the halo. (C) A linear curve w as made betw een t he diameters of the halo and log10s of the concentration of nisin.
(§7) (1 picture or pasted object on this page, not shown here)
(§8) Last Name a uthor 1 et al. Running Title
(§9) C = concentration of nisin d° = diameter of the halo of wild t ype […]

[2] = tested on: M. luteus; assay: Agar well diffusion assay; assay type: cell-based, Micrococcus luteus; settings: 20 °C; estimated from halo diameter by nisin standard curve, relative to wt
Protocol: as §1, §2, §3, §4, §5
as §6, with “nisin. […]” for “nisin.”

[3] = tested on: Staphylococcus aureus; assay: MIC in liquid culture; assay type: cell-based; settings: MIC value of nisin divided by that of the analog
Protocol: as §1
(§10) The indicator strains were cultured until OD (600 nm) reached 0.5. Before MIC value test, the culture was diluted 1000 times to make the concentration of cells around 5 × 10^5 per milliliter. The test was performed using a temperature controlled plate reader [Tecan200 (Tecan Group AG)] and 96 well plate (Greiner Bio-one). 180 μl indicator strain culture mixed with 20 μl hinge region analogs with final concentration from 0.031 μg/ml–32 μg/ml was incubated at 30°C or 37°C for 18 h. OD (600 nm) was checked every 30 min. For aerobic strains, 2 min of shaking was performed before every check. The concentration of peptide without observed growth of indicator strains was considered as the MIC value.

[4] = tested on: Bacillus cereus 4147; assay: MIC in liquid culture; assay type: cell-based; settings: MIC value of nisin divided by that of the analog
Protocol: as §1, §10

[5] = tested on: Listeria monocytogenes; assay: MIC in liquid culture; assay type: cell-based; settings: MIC value of nisin divided by that of the analog
Protocol: as §1, §10

[6] = tested on: Streptococcus pneumoniae R6; assay: MIC in liquid culture; assay type: cell-based; settings: MIC value of nisin divided by that of the analog
Protocol: as §1, §10

[7] = tested on: Bacillus cereus (L′29) 16; assay: MIC in liquid culture; assay type: cell-based; settings: MIC value of nisin divided by that of the analog
Protocol: as §1, §10

[8] = tested on: Lactococcus lactis MG1363; assay: MIC in liquid culture; assay type: cell-based; settings: MIC value of nisin divided by that of the analog
Protocol: as §1, §10

[9] = tested on: Micrococcus luteus; assay: MIC in liquid culture; assay type: cell-based; settings: MIC value of nisin divided by that of the analog
Protocol: as §1, §10

[10] = tested on: Bacillus cereus 4153; assay: MIC in liquid culture; assay type: cell-based; settings: MIC value of nisin divided by that of the analog
Protocol: as §1, §10

[11] = tested on: L. lactis MG1363; assay: Agar well diffusion assay; assay type: cell-based, Lactococcus lactis; settings: relative to wt
Protocol: as §1, §2, §3, §4, §5, §6, §7, §8, §9

[12] = tested on: L. monocytogenes; assay: Agar well diffusion assay; assay type: cell-based, Listeria monocytogenes; settings: estimated from halo diameter by nisin standard curve, relative to wt
Protocol: as §1, §2, §3, §4, §5, §6, §7, §8, §9

[13] = tested on: S. aureus; assay: Agar well diffusion assay; assay type: cell-based, Staphylococcus aureus; settings: 20 °C; estimated from halo diameter by nisin standard curve, relative to wt
Protocol: as §1, §2, §3, §4, §5
as §6, with “nisin. […]” for “nisin.”

[14] = tested on: Enterococcus faecalis VE14089; assay: MIC in liquid culture; assay type: cell-based; settings: MIC value of nisin divided by that of the analog
Protocol: as §1, §10

[15] = tested on: Bacillus sporothermodurans IC4; assay: MIC in liquid culture; assay type: cell-based; settings: MIC value of nisin divided by that of the analog
Protocol: as §1, §10

[16] = 20 °C, estimated from halo diameter by nisin standard curve (halo diameter vs log of nisin concentration)

Structure (SMILES) | Residual activity ([1]; 20 °C) [%] | Residual activity ([1]; 37 °C) [%] | Residual activity [2] [%] | Residual activity of variants compared to nisin [3] [%] | Residual activity of variants compared to nisin [4] [%] | Residual activity of variants compared to nisin [5] [%] | Residual activity of variants compared to nisin [6] [%] | Residual activity of variants compared to nisin [7] [%] | Residual activity of variants compared to nisin [8] [%] | Residual activity of variants compared to nisin [9] [%] | Residual activity of variants compared to nisin [10] [%] | Residual activity [11, 16] [%] | Residual activity ([12]; 20 °C) [%] | Residual activity [13] [%] | Residual activity ([1]; 30 °C) [%] | Residual activity of variants compared to nisin [14] [%] | Residual activity of variants compared to nisin [15] [%] | Residual activity ([11]; 30 °C, estimated from halo diameter by nisin standard curve) [%] | Residual activity ([12]; 30 °C) [%]
C=C(NC(=O)[C@@H](NC(=O)[C@H](Cc1c[nH]cn1)NC(=O)[C@@H](NC(=O)[C@H](CO)NC(=O)[C@@H]1CS[C@@H](C)[C@H]2NC(=O)[C@H](C)NC(=O)[C@H](NC(=O)[C@H](CCCCN)NC(=O)[C@H](CCSC)NC(=O)[C@H](CC(C)C)NC(=O)[C@H](CC(N)=O)NC(=O)[C@@H]3CS[C@@H](C)[C@@H](NC(=O)[C@H](CCCCN)NC(=O)[C@@H]4CS[C@@H](C)[C@@H](NC(=O)[C@@H]5CSC[C@@H](NC(=O)/C(=C/C)NC(=O)[C@@H](N)[C@@H](C)CC)C(=O)N[C@@H]([C@@H](C)CC)C(=O)NC(=C)C(=O)N[C@@H](CC(C)C)C(=O)N5)C(=O)N5CCC[C@H]5C(=O)NCC(=O)N4)C(=O)NCC(=O)N[C@@H](C)C(=O)N[C@@H](CC(C)C)C(=O)N[C@@H](CCSC)C(=O)NCC(=O)N3)[C@H](C)SC[C@H](NC2=O)C(=O)N[C@@H](Cc2c[nH]cn2)C(=O)N1)[C@@H](C)CC)C(C)C)C(=O)N[C@@H](CCCCN)C(=O)O [+1] | 72 | 82 | 9 | 6 | 25 | 25 | 17 | 25 | 25 | 25 | 25 | 122 | 72 | 27 |  |  |  |  | 
C=C(NC(=O)[C@@H](NC(=O)[C@H](Cc1c[nH]cn1)NC(=O)[C@@H](NC(=O)[C@H](CO)NC(=O)[C@@H]1CS[C@@H](C)[C@H]2NC(=O)[C@H](C)NC(=O)[C@H](NC(=O)[C@H](CC(N)=O)NC(=O)[C@@H]3CS[C@@H](C)[C@@H](NC(=O)[C@H](CCCCN)NC(=O)[C@@H]4CS[C@@H](C)[C@@H](NC(=O)[C@@H]5CSC[C@@H](NC(=O)/C(=C/C)NC(=O)[C@@H](N)[C@@H](C)CC)C(=O)N[C@@H]([C@@H](C)CC)C(=O)NC(=C)C(=O)N[C@@H](CC(C)C)C(=O)N5)C(=O)N5CCC[C@H]5C(=O)NCC(=O)N4)C(=O)NCC(=O)N[C@@H](C)C(=O)N[C@@H](CC(C)C)C(=O)N[C@@H](CCSC)C(=O)NCC(=O)N3)[C@H](C)SC[C@H](NC2=O)C(=O)N[C@@H](Cc2c[nH]cn2)C(=O)N1)[C@@H](C)CC)C(C)C)C(=O)N[C@@H](CCCCN)C(=O)O [−2] | 36 | 76 | 0 | <3 | <13 | <25 | 13 | <13 | 6 | <25 | <13 | 120 | 82 | 16 | 77 | <6 | 13 | 91 | 76
